Data from US11679108B2, “Aromatic heterocyclic compound, and pharmaceutical composition and use thereof” (GUANGZHOU HENOVCOM BIOSCIENCE CO., LTD., priority 2018, dated 2023).

What was measured:
ATX = ATX (Homo sapiens, UniProt Q13822); experiment: Analysis in vitro: LPC was used as substrate for screening enzyme activity (Amplex Red fluorescence); type: biochemical; details: inhibitory activity against ATX, with LPC as substrate
From the text: Analysis In Vitro: LPC was Used as Substrate for Screening Enzyme Activity
Principle: Lysophosphatidylcholine (LPC) as substrate is hydrolyzed by using the activity of lysoPLD enzyme, to produce lysophosphatidic acid (LPA) and choline, which is oxidized to produce H2O2 under the action of choline oxidase. In presence of horse radish peroxidase (HPR), Amplex Red reagent is reacted with H2O2 in a quantitative chemistry ratio of 1 to 1, to produce strong fluorescence products, which are detected by a fluorescent quantitative test.
Experimental procedures: the compounds to be tested were dissolved in DMSO, to prepare 10 mM of stock solution, which was diluted in a gradient concentration of 3 times with DMSO from 10 mM, to generate 10 concentration gradients. The reaction buffer solution was used for preparing a mixed solution 1 of 2 ng/μl ATX, 2 U/ml HRP and 0.2 U/ml choline oxidase in a final concentration. 20 μl of the above mixed solution 1 was added to each hole of an experiment board, […]. The compounds diluted with DMSO were transferred into an experiment board with Echo550. The reaction buffer solution was used for preparing a mixed solution 2 of […] LPC and 400 μM Amplex Red in a final concentration. 20 μl of the above mixed solution 2 was added to each hole of the experiment board. After addition, the experiment board was shook for 30 seconds on a shaker, and incubated for 30 minutes. Envision was used to read the fluorescence signals with an exciting light at 530 nm and emitted light at 590 nm. Inhibition ratio of the compounds to enzyme reaction was calculated according to the ratio of fluorescence, and IC50 of the compounds was analyzed and calculated by software, seeing Table 1.

ATX in human plasma = biological target: T1, ATX in human plasma (Homo sapiens, UniProt Q13822); experiment: Analysis in vitro: detection of LPA in human plasma for screening activity (LPA 18:2 by LC/MS/MS); type: biochemical; details: incubated 2 hours at 37° C., LPA 18:2 detected by LC/MS/MS
T1 construct: blank plasma was derived from at least 6 individual people; from tissue; host or cells: human plasma (pooled from at least 6 individuals)
From the text: Analysis In Vitro: Detection of LPA in Human Plasma for Screening Activity
Principle: LPC in plasma being used as a substrate, the produced LPA 18:2 (LPA 17:0 as an internal standard) is detected by LC/MS/MS quantitative analysis. At different concentrations of the compounds to be tested, the percentage of residual activity is obtained by the ratio of the production of LPA18:2 to that in the absence of the compounds to be tested, thereby calculating IC50 values.
Experiment procedures: blank plasma was derived from at least 6 individual people. The compounds to be tested were diluted from stock solution in 3-fold dilution gradient, to produce 8 concentrations of working solution (with zero) in series. 10 μL of the melting blank plasma samples were taken and iced methanol solution containing internal standard (LPA 17:0) was added to it, so that the mixture directedly performed protein precipitation, which served as a system control sample. 2 μL of the working solution in different concentration was taken and 198 μL of blank human plasma was added, which was incubated with a concentration of 0 to 10 μM. The samples were placed at an incubater containing 5% CO2 at 37° C., and incubated for 2 hours. When the incubation was completed, 10 μL of plasma sample was taken and appropriate volume of iced methanol solution containing internal standard (LPA 17:0) was added into it, so that the mixture directedly performed protein precipitation. The precipitation was centrifuged to take supernatant. LPA 18:2 was detected by LC/MS/MS and IC50 values were analyzed and calculated by software, seeing Table 2.

Row | Structure (SMILES) | IC50 (ATX) | IC50 (ATX in human plasma)
1 | CCc1nc2sc(N3CCC(N(C)CC(=O)N4CC(O)C4)C3)nn2c1N(C)c1nc(-c2ccc(F)cc2)c(C#N)s1 (stereo not shown) [Example 11] | 0.01 to 100 nM | 0.01 to 100 nM
2 | CCc1nc2sc(N3CC[C@H](N(C)CC(=O)N4CC(O)C4)C3)nn2c1N(C)c1nc(-c2ccc(F)cc2)c(C#N)s1 [Example 22, (S)-2-{[6-ethyl-2-(3-((2-(3-hydroxyazetidin-1-yl)-2oxoethyl)(methyl)amino)pyrrolidin-1-yl)imidazo[2,1-b][1,3,4]thiadiazol-5-yl](methyl)amino}-4-(4-fluorophenyl)thiazole-5-carbonitrile] | 0.01 to 100 nM | 0.01 to 100 nM
3 | CCc1nc2sc(N3CCC[C@@H](N(C)CC(=O)N4CC(O)C4)C3)nn2c1N(C)c1nc(-c2ccc(F)cc2)c(C#N)s1 [Example 23, (R)-2-{[6-ethyl-2-(3-((2-(3-hydroxyazetidin-1-yl)-2-oxoethyl)(methyl)amino)piperidin-1-yl)imidazo[2,1-b][1,3,4]thiadiazol-5-yl](methyl)amino}-4-(4-fluorophenyl)thiazole-5-carbonitrile] | 100 to 500 nM | 100 to 500 nM
4 | CCc1nc2sc(N3CCCC(N(C)C(N)=O)C3)nn2c1N(C)c1nc(-c2ccc(F)cc2)c(C#N)s1 (stereo not shown) [Example 15, 1-{1-[5-((5-cyano-4-(4-fluorophenyl)thiazol-2-yl)(methyl)amino)-6-ethylimidazo[2,1-b][1,3,4]thiadiazol-2-yl]piperidin-3-yl}-1-methylurea] | 0.01 to 100 nM | 0.01 to 100 nM
5 | CCc1nc2sc(N3CC[C@@H](N(C)CC(=O)N4CC(O)C4)C3)nn2c1N(C)c1nc(-c2ccc(F)cc2)c(C#N)s1 [Example 21, (R)-2-{[6-ethyl-2-(3-((2-(3-hydroxyazetidin-1-yl)-2-oxoethyl)(methyl)amino)pyrrolidin-1-yl)imidazo[2,1-b][1,3,4]thiadiazol-5-yl](methyl)amino}-4-(4-fluorophenyl)thiazole-5-carbonitrile] | 0.01 to 100 nM | 0.01 to 100 nM
6 | CCc1nc2sc(N3CC[C@H](N(C)CC(=O)N4CC(C(=O)O)C4)C3)nn2c1N(C)c1nc(-c2ccc(F)cc2)c(C#N)s1 [Example 45, (5)-1-{2-[(1-(5-((5-cyano-4-(4-fluorophenyl)thiazol-2-yl)(methyl)amino)-6-ethylimidazo[2,1-b][1,3,4]thiadiazol-2-yl}pyrrolidin-3-yl)(methyl)amino]acetyl}azetidine-3-carboxylic acid] | 0.01 to 100 nM | 100 to 500 nM
7 | CCc1nc2sc(N3CC[C@H](N(C)CC(=O)N4CCOCC4)C3)nn2c1N(C)c1nc(-c2ccc(F)cc2)c(C#N)s1 [Example 41, (S)-2-{[6-ethyl-2-(3-(methyl(2-morpholino-2-oxoethyl)amino)pyrrolidin-1-yl)imidazo[2,1-b][1,3,4]thiadiazol-5-yl](methyl)amino}-4-(4-fluorophenyl)thiazole-5-carbonitrile] | 0.01 to 100 nM | 100 to 500 nM
8 | CCc1nc2sc(N3CCCC(N(C)CC(=O)N4CC(O)C4)C3)nn2c1N(C)c1nc(-c2ccc(F)cc2)c(C#N)s1 (stereo not shown) [Example 14] | 0.01 to 100 nM | 0.01 to 100 nM
9 | CCc1nc2sc(N3CCC4(CC3)CN(CC(=O)N3CC(O)C3)C4)nn2c1N(C)c1nc(-c2ccc(F)cc2)c(C#N)s1 [Example 4] | 100 to 500 nM | 0.01 to 100 nM
10 | CCc1nc2sc(N3CCC[C@H](N(C)CC(=O)N4CC(O)C4)C3)nn2c1N(C)c1nc(-c2ccc(F)cc2)c(C#N)s1 [Example 24, (S)-2-{[6-ethyl-2-(3-((2-(3-hydroxyazetidin-1-yl)-2-oxoethyl)(methyl)amino)piperidin-1-yl)imidazo[2,1-b][1,3,4]thiadiazol-5-yl](methyl)amino}-4-(4-fluorophenyl)thiazole-5-carbonitrile] | 0.01 to 100 nM | 0.01 to 100 nM
11 | CCc1nc2sc(N3CC[C@@H](N(C)C(N)=O)C3)nn2c1N(C)c1nc(-c2ccc(F)cc2)c(C#N)s1 [Example 19, (R)-1-{1-[5-((5-cyano-4-(4-fluorophenyl)thiazol-2-yl)(methyl)amino)-6-ethylimidazo[2,1-b][1,3,4]thiadiazol-2-yl]pyrrolidin-3-yl}-1-methylurea] | 0.01 to 100 nM | 100 to 500 nM
12 | CCc1nc2sc(N3CC[C@H](N(C)CC(=O)N4CC(F)C4)C3)nn2c1N(C)c1nc(-c2ccc(F)cc2)c(C#N)s1 [Example 38, (S)-2-{[6-ethyl-2-(3-((2-(3-fluoroazetidin-1-yl)-2-oxoethyl)(methyl)amino)pyrrolidin-1-yl)imidazo[2,1-b][1,3,4]thiadiazol-5-yl](methyl)amino}-4-(4-fluorophenyl)thiazole-5-carbonitrile] | 0.01 to 100 nM | 100 to 500 nM
13 | CCc1nc2sc(N3CC[C@H](N(C)C(=O)N4CC(O)C4)C3)nn2c1N(C)c1nc(-c2ccc(F)cc2)c(C#N)s1 [Example 37, (S)—N-{1-[5-((5-cyano-4-(4-fluorophenyl)thiazol-2-yl)(methyl)amino)-6-ethylimidazo[2,1-b][1,3,4]thiadiazol-2-yl]pyrrolidin-3-yl}-3-hydroxy-N-methylazetidine-1-carboxamide] | 0.01 to 100 nM | 100 to 500 nM
14 | CCc1nc2sc(N3CCC4(CC3)CN(C(N)=O)C4)nn2c1N(C)c1nc(-c2ccc(F)cc2)c(C#N)s1 [Example 8] | 100 to 500 nM | 100 to 500 nM
15 | CCc1nc2sc(N3CC[C@H](N(C)C(N)=O)C3)nn2c1N(C)c1nc(-c2ccc(F)cc2)c(C#N)s1 [Example 20, (S)-1-{1-[5-((5-cyano-4-(4-fluorophenyl)thiazol-2-yl)(methyl)amino)-6-ethylimidazo[2,1-b][1,3,4]thiadiazol-2-yl]pyrrolidin-3-yl}-1-methylurea] | 0.01 to 100 nM | 0.01 to 100 nM
16 | CCc1nc2sc(N3CC4(CCN(CC(=O)N5CC(C#N)C5)C4)C3)nn2c1N(C)c1nc(-c2ccc(F)cc2)c(C#N)s1 [Example 53, 2-{[6-ethyl-2-(6-(2-(3-cyanoazetidin-1-yl)-2-oxoethyl)-2,6-diazaspiro[3.4]octane-2-yl)imidazo[2,1-b][1,3,4]thiadiazol-5-yl](methyl)amino}-4-(4-fluorophenyl)thiazole-5-carbonitrile] |  | 0.01 to 100 nM
17 | CCc1nc2sc(N3CCN(CC(=O)N4CC(O)C4)C[C@H]3C)nn2c1N(C)c1nc(-c2ccc(F)cc2)c(C#N)s1 [Example 66, (R)-2-{[6-ethyl-2-(4-(2-(3-hydroxyazetidin-1-yl)-2-oxoethyl)-2-methylpiperazin-1-yl)imidazo[2,1-b][1,3,4]thiadiazol-5-yl](methyl)amino}-4-(4-fluorophenyl)thiazole-5-carbonitrile] |  | 0.01 to 100 nM
18 | CCc1nc2sc(N3CC[C@@H](N(C)C(C)C(=O)N4CC(O)C4)C3)nn2c1N(C)c1nc(-c2ccc(F)cc2)c(C#N)s1 (stereo partly drawn) [Example 78, 2-{[6-ethyl-2-((3R)-3-((1-(3-hydroxyazetidin-1-yl)-1-oxopropan-2-yl)(methyl)amino)pyrrolidin-1-yl)imidazo[2,1-b][1,3,4]thiadiazol-5-yl](methyl)amino}-4-(4-fluorophenyl)thiazol-5-carbonitrile] |  | 0.01 to 100 nM
19 | CCc1nc2sc(N3C[C@@H]4C[C@H]3CN4CC(=O)N3CC(C#N)C3)nn2c1N(C)c1nc(-c2ccc(F)cc2)c(C#N)s1 [Example 59, 2-{[6-ethyl-2-((1S,4S)-5-(2-(3-cyanoazetidin-1-yl)-2-oxoethyl)-2,5-diazabicyclo[2.2.1]heptan-2-yl)imidazo[2,1-b][1,3,4]thiadiazol-5-yl](methyl)amino}-4-(4-fluorophenyl)thiazole-5-carbonitrile] |  | 100 to 500 nM
